Drawing on ChEMBL document CHEMBL3507680, “University of Dundee, Gates Library screen for HepG2 cell viability”, this text covers cytotoxicity for 97 compounds.

A short description of the data set: Human HepG2 cell viability assay in 384 well format. The format is toxicity, cell-based. On the set-up: dose 125 nL, time 70.5 hour; concentration not given beside the values. To be noted: HepG2 cells, read-out: Inhibition.

For the compound `CCn1c(C2CCCN2Cc2noc(C(C)(C)C)n2)nc2ccccc21` (configuration not stated), the cytotoxicity at 70.5 h is -26.2%.
The same measure for `Cc1ncsc1C(=O)OCCN1CCCCCC1=O`: -8.25%; for `Cc1nc(COc2ccc(S(=O)(=O)N(C)C)cc2)sc1C`: -24.1%.
The same measure for `Cc1nnc(-c2cccc(C#N)c2)n1C1CCN(C(C)C)C1=O` (configuration not stated): -11.3%; for `CN(Cc1ccncc1)c1cncc(Br)c1`: -14.6%.
With `CN(Cc1ccc([S+](C)[O-])cc1)c1cncc(Br)c1` (configuration not stated), the cytotoxicity at 70.5 h was -23.7%.
The same measure for `Cc1cc(C(=O)NCC(=O)N2CCOCC2)nn1C(C)(C)C`: -17.2%.
Regarding `Cn1ncnc1NCc1ccc(Br)cc1`, the cytotoxicity at 70.5 h was -5.73%.
For `CC(CNC(=O)c1cnc[nH]1)Oc1ccccc1Br` (configuration not stated), the cytotoxicity at 70.5 h is -15.7%.
Then `CCCN(CCc1ccccn1)C(=O)Cn1cc(C)cn1`, with -4.61%; and `COc1ccc(C(C)N2CCC(CO)CC2)cc1Cl` (configuration not stated), with -2.59%; and `COc1ccc(C(C)N2CCC(OC)CC2)cc1Cl` (configuration not stated), with -5.66%.
Then `CC(c1ccc(F)c(F)c1)N(C)CCS(=O)(=O)CCC(N)=O` (configuration not stated), with -9.48%; and `OCc1ccc(N2CCN(c3ncccn3)CC2)c(F)c1`, with -5.65%; and `NCc1ccc(N2CCN(c3ncccn3)CC2)c(F)c1`, with 6.72%.
The same measure for `CCOCCCC(=O)Nc1cc(C(N)=O)ccc1N1CCCCC1`: -9.3%; for `O=C(c1ccc2c(c1)[nH]c(=O)n2C1CCCC1)N1CCSCC1`: -4.63%; for `O=C(CNc1cccc(S(=O)(=O)C(F)F)c1)NCc1ccco1`: 11.3%.
With `O=C(Nc1ccncc1)NC1CCN(c2ccccc2Cl)C1=O` (configuration not stated), the cytotoxicity at 70.5 h is -5.27%.
As to `CN(CCNS(C)(=O)=O)C(=O)c1ccc(Cl)c(Cl)c1`, the cytotoxicity at 70.5 h was -6.01%.
Then `COc1cccc(C(=O)N2CCN(CC(O)c3ccccc3)CC2)c1` (configuration not stated), with -9.4%.
As to `CC(C)(C)[S+]([O-])CCNC(=O)c1cccc2ncccc12` (configuration not stated), the cytotoxicity at 70.5 h was -8.58%.
On to `O=C(CNc1cccc(CC(F)(F)F)c1)NCc1ccco1`, for which the cytotoxicity at 70.5 h was -4.32%.
In the case of `CN(C)CCCN(CCC#N)C(=O)Nc1ccc2[nH]ccc2c1`, the cytotoxicity at 70.5 h is -4.34%.
As for `COCCC(=O)Nc1nccn1Cc1ccc(Br)cc1`, the cytotoxicity at 70.5 h is -0.141%.
Take `CSCC(=O)Nc1nccn1Cc1ccc(Br)cc1`: the cytotoxicity at 70.5 h was -3.91%.
Then `O=C(c1ccc2c(c1)[nH]c(=O)n2C1CCCC1)N1CC(O)C1`, with -3.54%; and `CN1CCN(C(=O)c2ccc3c(c2)[nH]c(=O)n3C2CCCC2)CC1`, with 9.54%.
The same measure for `Cc1ccc(C(=O)N(C)CCNS(C)(=O)=O)cc1Br`: -5.18%; for `COc1cccc(CC2CCCN2CCCC#N)c1` (configuration not stated): -1.21%; for `CN(CC1CCN(CCO)CC1)CC(O)c1ccc(F)cc1` (configuration not stated): -5.05%.
On to `Cn1cc(CCCN2CCN(Cc3cccc(O)c3)CC2)cn1`, for which the cytotoxicity at 70.5 h is -3.39%.
Turning to `CN(CC1CCN(CCO)CC1)CC(O)c1ccc(F)cc1F` (configuration not stated), the cytotoxicity at 70.5 h is -3.94%.
Then `CC(c1cccc(Cl)c1)N(C)CCS(=O)(=O)CCC(N)=O` (configuration not stated), with -0.172%; and `Cc1nc(C)n(Cc2cccc(NC(=O)NC(C)(CO)C3CC3)c2)n1` (configuration not stated), with -6.87%.
The same measure for `CS(=O)(=O)c1cccc(C(=O)NCC2(c3ccccc3)CC2)c1`: -11.2%.
Then `N#Cc1ccc(N2CCCN(CC(N)=O)CC2)cc1`, with -9.42%.
Regarding `COCCN1CCC(CNC(=O)C2(S(C)(=O)=O)CCCC2)CC1`, the cytotoxicity at 70.5 h is -3.79%.
Consider `Cn1c(=O)ccn(CC(=O)N2CCCC(n3cccn3)C2)c1=O` (configuration not stated), for which the cytotoxicity at 70.5 h was -9.63%.
With `Cc1cc(C)n(C2CCCN(C(=O)Cn3ccc(=O)n(C)c3=O)C2)n1` (configuration not stated), the cytotoxicity at 70.5 h was -7.57%.
The same measure for `COCC(C)NS(=O)(=O)c1ccc(Br)cn1` (configuration not stated): -11.1%.
The same measure for `Cc1ccccc1-c1cc(NC(=O)Cn2ccccc2=O)n(C)n1`: -0.508%; for `CCC(CCO)NS(=O)(=O)c1ccc(Br)cn1` (configuration not stated): -0.693%.
The same measure for `Cc1csc(C2(NCc3nc(-c4ccco4)oc3C)CCCC2)n1`: 22.8%; for `C[C@H](CCO)NS(=O)(=O)c1ccc(Br)cn1`: -6.95%; for `Cn1cc(N2CCC(Nc3ccc4nccnc4n3)C2=O)cn1` (configuration not stated): -10.5%.
Turning to `O=C(c1ncoc1-c1ccco1)N1CCCN(c2nccs2)CC1`, the cytotoxicity at 70.5 h was -2.69%.
The same measure for `CCCC1(CNCc2ncc[nH]2)CCC1`: -8.95%.
Then `Cc1ccc(-c2nc(CN(Cc3cccs3)C3CCS(=O)(=O)C3)cs2)o1` (configuration not stated), with 13.7%; and `CC(NCCCc1cnn(C)c1)c1ccc(Br)s1` (configuration not stated), with -1.02%; and `CCN1C[C@H]2N(c3ncccn3)CCC[C@@]2(C(=O)NCC2CC2)C1`, with 0.391%.
Then `CO[C@H]1CO[C@@]2(CCCN(C(=O)C3CC=CC3)C2)C1`, with -0.276%; and `Cc1nccc(NCc2cncc3c2CCN(CCN(C)C)C3)n1`, with 3.96%; and `CO[C@@H]1CO[C@@]2(CCCN(C(=O)N3CCCC3)C2)C1`, with 0.448%.
Turning to `O=C(c1ccccc1)N1CCO[C@@H]2CN(Cc3ccc[nH]3)C[C@@H]2C1`, the cytotoxicity at 70.5 h stood at 1.61%.
With `CC(C)n1c2ccccc2c2c1cc(C(=O)NC1CC1)n2C(=O)N(C)C`, the cytotoxicity at 70.5 h was found to be 1.81%.
Then `CC(=O)N1CCc2nc(-c3ccc(F)cc3)nc(NC(C)C)c2CC1`, with 7.5%.
For `COCC(=O)N1CCc2nc(C)nc(NC(C)C)c2CC1`, the cytotoxicity at 70.5 h was -6.06%.
Then `Cc1nc2c(c(NC(C)C)n1)CCN(C(=O)CCO)CC2`, with -14.4%; and `CC(=O)N1CCO[C@@H]2CN(S(=O)(=O)C3CC3)CC[C@@H]2C1`, with -0.0787%.
The same measure for `O=C(c1ccnn1-c1ccc2ccccn12)N1CCCC1`: -10.6%; for `CS(=O)(=O)N1C[C@@H]2COC[C@]2(COCC(=O)N2CCCC2)C1`: -5.68%.
For the compound `O=C(c1ccnn1-c1ccc2ccccn12)N1CCOCC1`, the cytotoxicity at 70.5 h was -3.59%.
Turning to `O=C(NC1CC2(CCN(CCO)CC2)Oc2ccccc21)c1csnn1` (configuration not stated), the cytotoxicity at 70.5 h is -0.338%.
With `Cn1nc(C#N)c2c1CN(C(=O)c1nc[nH]n1)CCC2`, the cytotoxicity at 70.5 h was -1.6%.
Then `Cc1ccc(N2CCCC3(CCN(C(=O)C4CC4)C3)C2)nn1` (configuration not stated), with -3.58%; and `COCCN1CCO[C@@H]2CN(C(=O)c3ccc4[nH]ccc4c3)CC[C@@H]2C1`, with -11.1%; and `CNC(=O)[C@H]1C[C@@H]2CN(C(=O)c3cnc(C)cn3)C[C@@H]2N1C`, with -8.55%.
As for `CCOCC1CN(S(=O)(=O)CC)Cc2nn(C)cc21` (configuration not stated), the cytotoxicity at 70.5 h is -8.48%.
The same measure for `CCN1C[C@@H]2CN(C(=O)c3cccn3C)C[C@@H]2C1=O`: 8.28%; for `CC(C)NC(=O)[C@@H]1C[C@H]2NCC[C@H]2O1`: -7.3%; for `CNC(=O)NCC1CCC2(CCN(C(=O)c3ccccn3)CC2)CO1` (configuration not stated): 1.5%.
For `O=C(c1ccc[nH]1)N1CCCn2c(CNC3CCC3)nnc2C1`, the cytotoxicity at 70.5 h was -4.17%.
On to `CC(C)N1CCO[C@@H]2CN(C(=O)NCc3ccccc3)CC[C@@H]2C1`, for which the cytotoxicity at 70.5 h was found to be 28.5%.
Then `O=C(c1ccco1)N1CCC2(CCCN(c3ncccn3)C2)C1` (configuration not stated), with 11%; and `Cc1occc1C(=O)N1CCC2(CCCN(c3ncc(F)cn3)C2)C1` (configuration not stated), with -1.51%.
For the compound `Cc1ccc(C(=O)N2CCC3(CCCN(c4ncc(F)cn4)C3)C2)cn1` (configuration not stated), the cytotoxicity at 70.5 h was -5.14%.
Take `CCOCCN1C[C@@H]2CCCO[C@@H]2[C@H](NC(=O)c2cnoc2C)C1`: the cytotoxicity at 70.5 h is -6.18%.
`C1CC(N2C[C@@H]3COC[C@]3(COCC3CCOCC3)C2)C1`: the cytotoxicity at 70.5 h is -1.94%.
Regarding `Cc1oncc1C(=O)N[C@@H]1CN(Cc2ccoc2)C[C@@H]2CCCO[C@@H]21`, the cytotoxicity at 70.5 h is 2.7%.
Then `Cc1cnc(CNC(=O)[C@@]23CCO[C@@H]2CCNC3)cn1`, with 0.0687%.
`Cc1oncc1C(=O)N[C@@H]1CN(CC2CC2)C[C@@H]2CCCO[C@@H]21`: the cytotoxicity at 70.5 h was -10.1%.
On to `CN(C)C1CC2(CCN(C(=O)NC3CC3)CC2)c2ccccc21` (configuration not stated), for which the cytotoxicity at 70.5 h was -7.23%.
Then `Cc1noc([C@@H]2C[C@H]3CN(Cc4ccc5c(c4)OCO5)C[C@H]3O2)n1`, with -16.8%.
Consider `CCO[C@@H]1CC[C@H]2[C@H]1OCCN2CCOCc1ccccc1`, for which the cytotoxicity at 70.5 h is -17.9%.
`CCO[C@H]1CC[C@H]2[C@H]1OCCN2CCOCc1ccccc1`: the cytotoxicity at 70.5 h is -11.1%.
Then `CN1CCO[C@@H]2CN(C(=O)c3ccc4[nH]ccc4c3)CC[C@@H]2C1`, with -10.4%.
The same measure for `CCN1CCO[C@@H]2CN(C(=O)c3ccc4[nH]ccc4c3)CC[C@@H]2C1`: -7.4%; for `O=C(NC1CC1)[C@@H]1CCO[C@@H]2CCN(CC3CCC3)C[C@H]21`: -2.8%; for `COCCN1CCOCC12CCN(c1nccs1)CC2`: -20.8%.
The same measure for `O=C(NCc1cnc2n1CCN(Cc1ccoc1)C2)c1ccno1`: -0.405%.
Turning to `NCC1CCC2(CCN(C(=O)c3ccccn3)CC2)CO1` (configuration not stated), the cytotoxicity at 70.5 h is 2.02%.
The same measure for `CNC(=O)CN1CCC2(CCCN(CC3CCOC3)C2)CC1` (configuration not stated): -6.27%.
Then `COCCN1C[C@@H]2CN(Cc3ccc(C)s3)CCC[C@]2(C(=O)O)C1`, with 11.4%; and `Cc1ccc(CN2CCOC3(CCN(CC4CCOC4)CC3)C2)cc1` (configuration not stated), with -1.57%; and `CNC(=O)[C@H]1C[C@@H]2CN(C(=O)c3ccc(C)nc3)C[C@@H]2N1C(C)C`, with -9.38%.
`O=C(NCc1ccccn1)[C@@]12CCO[C@@H]1CCN(Cc1ccccn1)C2`: the cytotoxicity at 70.5 h was -5.8%.
